Earlier results as cited in patent publication US6399797B1, “Vitamin D analogues” (Leo Pharmaceutical Products Ltd. A/S (Løvens kemiske Fabrik …, priority 1997, dated 2002).

How the values were obtained:
[1] = system: transplanted islets in diabetic NOD mice; settings: alone or in combination with cyclosporin A
[2] = system: experimental animal models; settings: systemically administered
[3] = system: cardiac and small bowel grafts; settings: rats

Row | SMILES | prevention of autoimmune destruction of transplanted islets [1] | immunosuppressive activities in vivo [2] | survival of cardiac and small bowel grafts [3]
1 | C=C1/C(=C\C=C2/CCC[C@]3(C)[C@@H]([C@@H](C)OCCCC(O)(CC)CC)CC[C@@H]23)C[C@@H](O)C[C@@H]1O [KH 1060] | prevent autoimmune destruction of transplanted islets | have shown immunosuppressive activities in vivo | –
2 | C=C1/C(=C\C=C2/CCC[C@]3(C)[C@@H]([C@H](C)CCCC(C)(C)O)CC[C@@H]23)C[C@@H](O)C[C@@H]1O [MC 1288] | – | have shown immunosuppressive activities in vivo | able to prolong survival of cardiac and small bowel grafts
